In paper PMC10897476, “Pyridylpiperazine efflux pump inhibitor boosts in vivo antibiotic efficacy against K. pneumoniae” (EMBO Molecular Medicine, 2023):
“And” between values parts separate entries of the source, which are not always exact repeats. Equal entries are not always repeated. Where a SMILES comes first, the peptide text is derived from it.

What was measured:
Format in all cases: cell-based, Klebsiella pneumoniae
K. pneumoniae AcrB^V448E [1] = assay: MIC of antibiotics with and without EPI (REMA), AcrB V448E mutant; conditions: K. pneumoniae-AcrB^V448E, Table 2
Procedure, shortened: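 K. pneumoniae ATCC 43816 carrying single chromosomal acrB or ramR mutations introduced by allelic exchange, diluted to OD600 = 0.001 in CAMHB with EPI at final 100 µM. Incubated 37 °C up to 20 h; viability by resazurin fluorescence (Ex 530/Em 590 nm).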

[2] = system: K. pneumoniae ATCC 43816 (WT); assay: Checkerboard assay levofloxacin x EPI, WT strain; conditions: for checkerboard growth readout: ATCC43816 WT, levofloxacin 0 ng/mL; for percentage resazurin turnover: individual replicates, listed as PABN; for Median REMA values (percentage resazurin turnover): median n=3
Description: (§1) MIC experiments were carried out according to the CLSI guidelines (CLSI [2023]). Overnight cultures were diluted to an OD600 = 0.001 in CAMHB followed by addition of efflux pump inhibitors (EPIs) at a final concentration of 100 µM. […] Plates were incubated at 37 °C for up to 20 h. Bacterial viability was evaluated using the resazurin microtitre assay (REMA) and measured by fluorescence using a Tecan Spaert multimode plate reader (Ex: 530 nm Em: 590 nm). MICs were defined as the concentration that prevented 90% of resazurin turnover compared to the non-treated bacteria.
(§2) Bacterial suspensions, incubation and plate readouts were carried out as described above.

K. pneumoniae AcrB^V448E [3] = assay: Checkerboard assay levofloxacin x EPI, AcrB V448E mutant; conditions: for checkerboard growth readout: ATCC43816 AcrBV448E, levofloxacin 0 ng/mL; for Median REMA values / percentage resazurin turnover: Lev 0.00 ng/mL
Description: as §1, §2

[4] = system: K. pneumoniae RamR^mut (K124*stop); assay: Checkerboard assay levofloxacin x EPI, RamR mutant; conditions: for checkerboard growth readout: ATCC43816 ramRmut, levofloxacin 0 ng/mL
Description: as §1, §2

[5] = system: K. pneumoniae AcrB^V448E RamR^mut; assay: Checkerboard assay levofloxacin x EPI, double mutant; conditions: ATCC43816 AcrBV448E ramRmut, levofloxacin 0 ng/mL
Description: as §1, §2

NC(N)=NCCC[C@H](NC(=O)[C@@H](N)Cc1ccccc1)C(=O)Nc1ccc2ccccc2c1 [PAβN] (HELM PEPTIDE1{F.R.[c1ccc2cc(N[*:1])ccc2c1]}$$$$V2.0) was tested, and the “susceptibility of the strain to antibiotic boosting by the EPI, in words” value (K. pneumoniae AcrB^V448E [1]) was “remained sensitive”, the checkerboard growth readout ([2]; EPI 2.3 µM) was 75 and the checkerboard growth readout ([2]; EPI 4.7 µM) was 87. For the same compound, the checkerboard growth readout ([2]; EPI 9.4 µM) was 110, the checkerboard growth readout ([2]; EPI 19 µM) was 116 and the checkerboard growth readout ([2]; EPI 38 µM) was 154. It also gave a checkerboard growth readout ([2]; EPI 75 µM) of 143, a checkerboard growth readout ([2]; EPI 150 µM) of 129 and a checkerboard growth readout ([2]; EPI 300 µM) of 135. The percentage resazurin turnover ([2]; Lev 0.00 ng/mL + EPI 2.34 uM) was 100% and 75% and 71%, the “Median REMA values (percentage resazurin turnover)” value ([2]; Lev 0.00 ng/mL + EPI 2.34 uM) was 75% and the percentage resazurin turnover ([2]; Lev 0.00 ng/mL + EPI 4.69 uM) was 108% and 87% and 69%. For the same compound, the “Median REMA values (percentage resazurin turnover)” value ([2]; Lev 0.00 ng/mL + EPI 4.69 uM) was 87%, the percentage resazurin turnover ([2]; Lev 0.00 ng/mL + EPI 9.38 uM) was 112% and 110% and 90% and the “Median REMA values (percentage resazurin turnover)” value ([2]; Lev 0.00 ng/mL + EPI 9.38 uM) was 110%. The percentage resazurin turnover ([2]; Lev 0.00 ng/mL + EPI 18.75 uM) was 116% and 136% and 109%, the “Median REMA values (percentage resazurin turnover)” value ([2]; Lev 0.00 ng/mL + EPI 18.75 uM) was 116% and the percentage resazurin turnover ([2]; Lev 0.00 ng/mL + EPI 37.50 uM) was 154% and 197% and 115%. For the same compound, the “Median REMA values (percentage resazurin turnover)” value ([2]; Lev 0.00 ng/mL + EPI 37.50 uM) was 154%, the percentage resazurin turnover ([2]; Lev 0.00 ng/mL + EPI 75.00 uM) was 134% and 143% and 152% and the “Median REMA values (percentage resazurin turnover)” value ([2]; Lev 0.00 ng/mL + EPI 75.00 uM) was 143%. For the same compound, the percentage resazurin turnover ([2]; Lev 0.00 ng/mL + EPI 150.00 uM) was 129% and 156% and 124%, the “Median REMA values (percentage resazurin turnover)” value ([2]; Lev 0.00 ng/mL + EPI 150.00 uM) was 129% and the percentage resazurin turnover ([2]; Lev 0.00 ng/mL + EPI 300 uM) was 162% and 135% and 125%. The “Median REMA values (percentage resazurin turnover)” value ([2]; Lev 0.00 ng/mL + EPI 300 uM) was 135%, the checkerboard growth readout (K. pneumoniae AcrB^V448E [3]; EPI 2.3 µM) was 91 and the checkerboard growth readout (K. pneumoniae AcrB^V448E [3]; EPI 4.7 µM) was 95. For the same compound, the checkerboard growth readout (K. pneumoniae AcrB^V448E [3]; EPI 9.4 µM) was 107, the checkerboard growth readout (K. pneumoniae AcrB^V448E [3]; EPI 19 µM) was 112 and the checkerboard growth readout (K. pneumoniae AcrB^V448E [3]; EPI 38 µM) was 147. It also gave a checkerboard growth readout (K. pneumoniae AcrB^V448E [3]; EPI 75 µM) of 161, a checkerboard growth readout (K. pneumoniae AcrB^V448E [3]; EPI 150 µM) of 143 and a checkerboard growth readout (K. pneumoniae AcrB^V448E [3]; EPI 300 µM) of 143. For the same compound, the “boosting of levofloxacin activity, in words” value (K. pneumoniae AcrB^V448E [3]; K. pneumoniae AcrB^V448E) was “maintained”, the “Median REMA values” (K. pneumoniae AcrB^V448E [3]; PABN 2.34 uM) was 91% and the percentage resazurin turnover (K. pneumoniae AcrB^V448E [3]; PABN 2.34 uM) was 108% and 91% and 74%. The “Median REMA values” (K. pneumoniae AcrB^V448E [3]; PABN 4.69 uM) was 95%, the percentage resazurin turnover (K. pneumoniae AcrB^V448E [3]; PABN 4.69 uM) was 95% and 102% and 74% and the “Median REMA values” (K. pneumoniae AcrB^V448E [3]; PABN 9.38 uM) was 107%. The percentage resazurin turnover (K. pneumoniae AcrB^V448E [3]; PABN 9.38 uM) was 113% and 107% and 80%, the “Median REMA values” (K. pneumoniae AcrB^V448E [3]; PABN 18.75 uM) was 112% and the percentage resazurin turnover (K. pneumoniae AcrB^V448E [3]; PABN 18.75 uM) was 120% and 112%. The “Median REMA values” (K. pneumoniae AcrB^V448E [3]; PABN 37.50 uM) was 147%, the percentage resazurin turnover (K. pneumoniae AcrB^V448E [3]; PABN 37.50 uM) was 147% and 150% and 121% and the “Median REMA values” (K. pneumoniae AcrB^V448E [3]; PABN 75.00 uM) was 161%. The percentage resazurin turnover (K. pneumoniae AcrB^V448E [3]; PABN 75.00 uM) was 161% and 123% and 162%, the “Median REMA values” (K. pneumoniae AcrB^V448E [3]; PABN 150.00 uM) was 143% and the percentage resazurin turnover (K. pneumoniae AcrB^V448E [3]; PABN 150.00 uM) was 143% and 146% and 114%. The “Median REMA values” (K. pneumoniae AcrB^V448E [3]; PABN 300 uM) was 143%, the percentage resazurin turnover (K. pneumoniae AcrB^V448E [3]; PABN 300 uM) was 143% and 112% and the checkerboard growth readout ([4]; EPI 2.3 µM) was 83. For the same compound, the checkerboard growth readout ([4]; EPI 4.7 µM) was 85, the checkerboard growth readout ([4]; EPI 9.4 µM) was 97 and the checkerboard growth readout ([4]; EPI 19 µM) was 113. The checkerboard growth readout ([4]; EPI 38 µM) was 126, the checkerboard growth readout ([4]; EPI 75 µM) was 200 and the checkerboard growth readout ([4]; EPI 150 µM) was 177. The checkerboard growth readout ([4]; EPI 300 µM) was 157, the “reversion of RamR-mediated levofloxacin resistance, in words” value ([4]; K. pneumoniae RamR^mut) was “only be partially reverted” and the checkerboard growth readout ([5]; EPI 2.3 µM) was 79. For the same compound, the checkerboard growth readout ([5]; EPI 4.7 µM) was 95, the checkerboard growth readout ([5]; EPI 9.4 µM) was 80 and the checkerboard growth readout ([5]; EPI 19 µM) was 121. For the same compound, the checkerboard growth readout ([5]; EPI 38 µM) was 158, the checkerboard growth readout ([5]; EPI 75 µM) was 211 and the checkerboard growth readout ([5]; EPI 150 µM) was 226. For the same compound, the checkerboard growth readout ([5]; EPI 300 µM) was 191.
